Drawing on patent US10098883B2, “(Aza)pyridopyrazolopyrimidinones and indazolopyrimidinones and their use” (BAYER PHARMA AKTIENGESELLSCHAFT, priority 2013, dated 2018), this text covers IC50 for 30 molecules.

Where a name gives a salt, the structure may show the parent alone.

This assay has as its system clot lysis (fibrinolysis) in human citrated plasma, tPA-induced. The assay is described as follows: Plasma-based clot lysis assay (5%). The class given is biochemical. The conditions noted are these: diluted human citrated plasma (platelet-poor, 5%), fibrinogen 3 μM, CaCl2 10 mM, tPA 0.2 nM, 37° C., OD 405 nm. Here is the method: B-2. Plasma-based Clot Lysis Assay (5%)
The clot-lysis test system configures the kinetics of clot formation and degradation in vitro and allows quantifying modulation of the process by selected test compounds.
The test compounds were dissolved in 1% acetic acid and further complemented with an equal volume of DMSO. The resulting stock solutions were serially diluted in 0.5% acetic acid/50% DMSO. 1 μL aliquots of these solutions were placed into 384 well microplates (Greiner, black, transparent bottom), followed by 30 μL of diluted human citrated plasma (platelet-poor, final concentration: 5%; supplemented with fibrinogen, final concentration: 3 μM; dilution buffer: 20 mM HEPES, 150 mM NaCl, 0.01% Brij (pH 7)). The reactions were started by addition of […] of CaCl2 (final concentration: 10 mM), and tPA (tissue plasminogen activator, final concentration: 0.2 nM) in dilution buffer, followed by an additional volume of 20 μL dilution buffer for improved mixing. The reactions were incubated at 37° C. Clot formation and degradation was monitored spectrophotometrically by kinetic optical density measurements at 405 nm. IC50 values were determined by comparing the resulting time courses with the time course of a blank control reaction.

Molecule `CC1CC(c2cc(=O)[nH]c3c4c(Cl)cccc4nn23)CCN1` (single isomer, unassigned; (+)) [Example 101, (+)-Cis-10-Chloro-4-(2-methylpiperidin-4-yl)pyrimido[1,2-b]indazol-2(1H)-one hydrochloride [Enantiomerically Pure Cis-Isomer]] gave an IC50 of 35 nM.

For `O=c1cc(C2CCNCC2)n2nc3ccccc3c2[nH]1` [Example 1, 4-(Piperidin-4-yl)pyrimido[1,2-b]indazol-2(1H)-one hydrochloride], the IC50 came out at 51 nM.

`O=c1cc(C2CCNCC2)n2nc3ccc(C(F)(F)F)cc3c2[nH]1` [Example 2, 4-(Piperidin-4-yl)-9-(trifluoromethyl)pyrimido[1,2-b]indazol-2(1H)-one hydrochloride]: inhibition was half-maximal at 30 nM (IC50).

`O=c1cc(C2CCNCC2)n2nc3cccc(Cl)c3c2[nH]1` [Example 3, 10-Chloro-4-(piperidin-4-yl)pyrimido[1,2-b]indazol-2(1H)-one hydrochloride] registered an IC50 (hydrochloride) of 28 nM.

The molecule `O=c1cc(C2CCNCC2)n2nc3cccc(F)c3c2[nH]1` [Example 4, 10-Fluoro-4-(piperidin-4-yl)pyrimido[1,2-b]indazol-2(1H)-one hydrochloride] showed an IC50 of 28 nM.

Molecule `O=c1cc(C2CCNCC2)n2nc3ccc(Cl)cc3c2[nH]1` [Example 5, 9-Chloro-4-(piperidin-4-yl)pyrimido[1,2-b]indazol-2(1H)-one hydrochloride] had an IC50 of 37 nM.

`O=c1cc(C2CCNCC2)n2nc3c(Cl)cc(Cl)cc3c2[nH]1` [Example 6, 7,9-Dichloro-4-(piperidin-4-yl)pyrimido[1,2-b]indazol-2(1H)-one hydrochloride] had an IC50 of 94 nM.

`O=c1cc(C2CCNCC2)n2nc3ccc(F)cc3c2[nH]1` [Example 7, 9-Fluoro-4-(piperidin-4-yl)pyrimido[1,2-b]indazol-2(1H)-one hydrochloride]: the IC50 stood at 95 nM.

For `COc1cccc2nn3c(C4CCNCC4)cc(=O)[nH]c3c12` [Example 8, 10-Methoxy-4-(piperidin-4-yl)pyrimido[1,2-b]indazol-2(1H)-one hydrochloride], the IC50 came to 46 nM.

`O=c1cc(C2CCNCC2)n2nc3cccnc3c2[nH]1` [Example 9, 7-(Piperidin-4-yl)pyrido[3′,2′:3,4]pyrazolo[1,5-a]pyrimidin-9(10H)-one hydrochloride] registered an IC50 of 36 nM.

Take `O=c1cc(C2CCNCC2)n2nc3cccc(Br)c3c2[nH]1` [Example 10, 10-Bromo-4-(piperidin-4-yl)pyrimido[1,2-b]indazol-2(1H)-one hydrochloride]: where the note is “hydrochloride”, the half-inhibitory concentration (IC50) came to 34 nM.

As to `O=c1cc(C2CCNCC2)n2nc3cc(C(F)(F)F)ccc3c2[nH]1` [Example 11, 4-(Piperidin-4-yl)-8-(trifluoromethyl)pyrimido[1,2-b]indazol-2(1H)-one hydrochloride], the IC50 turned out to be 26 nM.

With `O=c1cc(C2CCNCC2)n2nc3cccc(C(F)(F)F)c3c2[nH]1` [Example 12, 4-(Piperidin-4-yl)-10-(trifluoromethyl)pyrimido[1,2-b]indazol-2(1H)-one hydrochloride], the IC50 was 32 nM.

On to `CC(C)(C)c1ccc2c(n1)nn1c(C3CCNCC3)cc(=O)[nH]c21` [Example 13, 8-tert-Butyl-4-(piperidin-4-yl)pyrido[2′,3′:3,4]pyrazolo[1,5-a]pyrimidin-2(1H)-one hydrochloride], for which half-maximal inhibition (IC50) required 31 nM.

As to `Cc1cc(C(F)(F)F)nc2nn3c(C4CCNCC4)cc(=O)[nH]c3c12` [Example 14, 10-Methyl-4-(piperidin-4-yl)-8-(trifluoromethyl)pyrido[2′,3′:3,4]pyrazolo[1,5-a]pyrimidin-2(1H)-one hydrochloride], the IC50 was found to be 50 nM.

Turning to `Cc1ccc2nn3c(C4CCNCC4)cc(=O)[nH]c3c2c1` [Example 15, 9-Methyl-4-(piperidin-4-yl)pyrimido[1,2-b]indazol-2(1H)-one hydrochloride], half-maximal inhibition (IC50) was put at 48 nM.

The molecule `Nc1ccc2c(c1)nn1c(C3CCNCC3)cc(=O)[nH]c21` [Example 16, 8-Amino-4-(piperidin-4-yl)pyrimido[1,2-b]indazol-2(1H)-one hydrochloride] gave an IC50 of 34 nM.

Consider `Cc1nnc2nn3c(C4CCNCC4)cc(=O)[nH]c3c2c1C` [Example 17, 3,4-Dimethyl-8-(piperidin-4-yl)pyrimido[1′,2′:1,5]pyrazolo[3,4-c]pyridazin-6(5H)-one hydrochloride], for which it took 22 nM to reach half-maximal inhibition (IC50).

The molecule `O=c1cc(C2CCNCC2)n2nc3cc(F)ccc3c2[nH]1` [Example 18, 8-Fluoro-4-(piperidin-4-yl)pyrimido[1,2-b]indazol-2(1H)-one hydrochloride] returned an IC50 of 38 nM.

On to `O=c1cc(C2CCNCC2)n2nc3ccc(Br)cc3c2[nH]1` [Example 19, 9-Bromo-4-(piperidin-4-yl)pyrimido[1,2-b]indazol-2(1H)-one hydrochloride], for which the IC50 was determined as 26 nM.

Consider `O=c1cc(C2CCNCC2)n2nc3cccc(I)c3c2[nH]1` [Example 20, 10-Iodo-4-(piperidin-4-yl)pyrimido[1,2-b]indazol-2(1H)-one hydrochloride], for which inhibition was half-maximal at 22 nM (IC50).

In turn, `O=c1cc(C2CCNCC2)n2nc3cc(Br)ccc3c2[nH]1` [Example 21, 8-Bromo-4-(piperidin-4-yl)pyrimido[1,2-b]indazol-2(1H)-one hydrochloride] had a half-inhibitory concentration (IC50) of 30 nM.

Take `O=c1cc(C2CCNCC2)n2nc3c(Cl)cccc3c2[nH]1` [Example 22, 7-Chloro-4-(piperidin-4-yl)pyrimido[1,2-b]indazol-2(1H)-one hydrochloride]: the IC50 turned out to be 26 nM.

`O=c1cc(C2CCNCC2)n2nc3cc(F)cc(F)c3c2[nH]1` [Example 23, 8,10-Difluoro-4-(piperidin-4-yl)pyrimido[1,2-b]indazol-2(1H)-one hydrochloride] returned an IC50 of 28 nM.

`Cc1ccc2c(n1)nn1c(C3CCNCC3)cc(=O)[nH]c21` [Example 24, 8-Methyl-4-(piperidin-4-yl)pyrido[2′,3′:3,4]pyrazolo[1,5-a]pyrimidin-2(1H)-one hydrochloride] had an IC50 of 34 nM.

Molecule `CCOc1cccc2nn3c(C4CCNCC4)cc(=O)[nH]c3c12` [Example 26, 10-Ethoxy-4-(piperidin-4-yl)pyrimido[1,2-b]indazol-2(1H)-one hydrochloride] yielded a half-maximal inhibitory concentration (IC50) of 29 nM.

Turning to `O=c1cc(C2CCNCC2)n2nc3c(Br)cncc3c2[nH]1` [Example 27, 7-Bromo-4-(piperidin-4-yl)pyrido[4′,3′:3,4]pyrazolo[1,5-a]pyrimidin-2(1H)-one hydrochloride], 13 nM corresponded to half-maximal inhibition (IC50).

For `O=c1cc(C2CCNCC2)n2nc3c(F)cccc3c2[nH]1` [Example 28, 7-Fluoro-4-(piperidin-4-yl)pyrimido[1,2-b]indazol-2(1H)-one hydrochloride], the IC50 was 33 nM.

The molecule `O=c1cc(C2CCNCC2)n2nc3cnccc3c2[nH]1` [Example 29, 4-(Piperidin-4-yl)pyrido[3′,4′:3,4]pyrazolo[1,5-a]pyrimidin-2(1H)-one hydrochloride] returned an IC50 of 28 nM.

For `O=c1cc(C2CCNCC2)n2nc3c(C(F)(F)F)cccc3c2[nH]1` [Example 30, 4-(Piperidin-4-yl)-7-(trifluoromethyl)pyrimido[1,2-b]indazol-2(1H)-one hydrochloride], the IC50 came to 46 nM.
